37 compounds from patent US12281102B2, “Inhibitors of APOL1 and methods of using same” (Vertex Pharmaceuticals Incorporated, priority 2020, dated 2025) can be followed below.

SMILES strings stand for the structures. Like-named read-outs stand apart in the source and are kept apart here.

In this test the target is T1, G1 APOL1 (Homo sapiens, UniProt O14791, I384M/S342G).
T1 construct: expressed in transfected cells
T1 sequence (O14791 28-398 S342G/I384M): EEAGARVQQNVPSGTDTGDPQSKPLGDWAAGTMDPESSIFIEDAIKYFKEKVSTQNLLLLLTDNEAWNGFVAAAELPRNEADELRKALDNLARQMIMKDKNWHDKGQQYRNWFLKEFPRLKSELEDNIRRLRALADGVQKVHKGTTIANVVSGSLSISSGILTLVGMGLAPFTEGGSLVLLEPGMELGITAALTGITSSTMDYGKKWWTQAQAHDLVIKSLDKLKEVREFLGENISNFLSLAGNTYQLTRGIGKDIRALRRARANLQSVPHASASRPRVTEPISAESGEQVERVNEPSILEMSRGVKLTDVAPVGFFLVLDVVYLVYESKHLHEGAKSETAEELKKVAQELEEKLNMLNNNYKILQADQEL
As to the kind of experiment: Acute APOL1 Thallium Assay with inducible stable clones of HEK 293 cells. The conditions noted are these: HEK 293 T-Rex inducible stable clone expressing G1 APOL1. The class given is cell-based. The source says:
Acute APOL1 Thallium Assay with Inducible Stable Clones of HEK 293 Cells
Apolipoprotein L1 (APOL1) proteins form potassium-permeable cation pores in the plasma membrane. APOL1 risk variants (G1 and G2) induce greater potassium flux than G0 in HEK293 cells. This assay exploits the permeability of thallium (T1+) through ligand-gated potassium channels. The dye produces a bright fluorescent signal upon binding to T1+ conducted through potassium channels. The intensity of the T1+ signal is proportional to the number of potassium channels in the open state. Therefore, it provides a functional indication of the potassium channel activities. During the initial dye-loading step, the T1+ indicator dye as an acetoxymethyl (AM) ester enters the cells through passive diffusion. Cytoplasm esterases cleave the AM ester and relieve its active thallium-sensitive form. The cells are then stimulated with T1+. The increase of fluorescence in the assay represents the influx of T1+ into the cell specifically through the potassium channel (i.e. through APOL1 pores), providing a functional measurement of potassium channel/pore activity. The Thallium assay is conducted with cells expressing G1 APOL1.
APOL1 Cell Line (HEK T-Rex Stable Inducible Cell Line)
• HEK T-Rex System • Tetracycline (Tet) inducible mammalian expression system. • Stably express the Tet repressor to regulate transcription. • Expression under the full-length CMV promoter. • APOL1 stable inducible cell line Clone used: G1 DC3.25 Tissue Culture Media Cell Culture Medium • DMEM+10% FBS+P/S+5 μg/mL blasticidin+1 μg/mL puromycin. • 500 mL DMEM+55 mL FBS+5 mL P/S+280 μL blasticidin S HCl (10 mg/mL)+56 μL puromycin (10 mg/mL). Cell Assay Medium • DMEM with 2% FBS+penicillin streptomycin. Reagents:
Instruments and Equipment • Nuaire cell culture hood, Cat. No. 540-600 • 37° C./5% CO2 incubator link to robotic arm, Liconic: STX110 • Molecular Devices FLIPR^Tetra High throughput cellular screening system, Cat. No. FT0324, Molecular Devices • ThermoFisher MultiDrop 384, Cat. No. 5840300 • Biotek Microfill, Cat. No. ASF1000A-4145 • BioRad TC10 cell counter, Cat. No. 145-0010 Assay Procedures Cells Scaled Up from Frozen Vials • APOL1 G1 3.25 (HEK293 T-Rex) frozen vials: 5 million cells per vial • Step 1, Day 1: Defrost frozen vial into T-225. • Step 2, Day 5: (when 85% confluent): Split one T-225 at 3×10^6 cells per flask. • Step 3, Day 8: Splits cells to set up for the assay plates as described below. Cell Culture
T-Rex APOL1 HEK cells are split twice per week to keep the confluence state below 85% of the culture flask surface area. Cells can be kept until passage 25.
• DMEM high glucose+10% FBS, +P/S, +5 μg/mL blasticidin, +1 μg/mL puromycin. • 500 mL DMEM, +55 mL FBS, +5 mL P/S, +280 μL blasticidin 10 mg/mL, +56 μL Puromycin 10 mg/mL. Assay Media • Opti-MEM reduced serum medium from Invitrogen. Day 1 Preparation of Cell Assay Plates • Culture medium is removed from the x cm^2 T-flask by aspiration. • The cell monolayer is rinsed with PBS 1× at room temperature. PBS is removed by aspiration. • Cells are trypsinized using Trypsin. • The flasks are incubated at room temperature for 2-3 minutes. • Complete DMEM medium is then added. Cell suspension is then transferred to a 50 mL Falcon polypropylene tube. • Cells are then counted using a BioRad TC10 cell counter and the required amount of cells are centrifuged at 1200 RPM for 5 minutes. Required amount is 1.3×10^6 cells/mL APOL1 T-Rex HEK cells. • The pellet is suspended in the assay medium. • Using the MultiDrop, add 20 μL to each well (corresponds to 26000 cells total per well) of a 384-well black, transparent, flat bottom Poly-D coated plate. • Tetracycline as prepared in the following section is added to the cells before plating to induce APOL1 expression. • Plates are left at room temperature for 20 to 30 minutes before incubation at 37° C. and 5% CO2. […]

Setting [1] is: read-out: Thallium Assay (IC50).

What is called IC50 is the point on the concentration scale where inhibition reaches its midpoint. With `NC(C(=O)NC[C@H]1C[C@H](c2c(-c3ccc(F)cc3)[nH]c3c(F)cc(F)cc32)C1)C(F)(F)F` (stereo partly shown) [Compound 233], the 50% inhibitory concentration (IC50) under setting [1] is over 1 µM.

Turning to `O=C(N[C@H]1C[C@H](c2c(-c3ccc(F)cc3)[nH]c3c(F)cc(F)cc32)C1)C(O)C1CC1` (stereo partly shown) [Compound 92], the 50% inhibitory concentration (IC50) under setting [1] is 0.25 to 1 µM.

With `NC(=O)C(=O)N1CC(Cc2c(-c3ccc(F)cc3)[nH]c3c(F)cc(F)cc23)C1` [Compound 455, 2-[3-[[5,7-difluoro-2-(4-fluorophenyl)-1H-indol-3-yl]methyl]azetidin-1-yl]-2-oxo-acetamide], under setting [1], the half-inhibitory concentration (IC50) is 0.25 to 1 µM.

As for `N[C@H](C(=O)NC[C@H]1C[C@H](c2c(-c3ccc(F)cc3)[nH]c3c(F)cc(F)cc32)C1)C1CC1` [Compound 196], the 50% inhibitory concentration (IC50) under setting [1] was under 0.25 µM.

As to `C[C@@H](O)C(=O)NC[C@H]1C[C@H](c2c(-c3ccc(F)cc3)[nH]c3c(F)cc(F)cc32)C1` [Compound 211], under setting [1], the IC50 was 0.25 to 1 µM.

`CS(=O)(=O)NC[C@H]1C[C@H](c2c(-c3ccc(F)cc3)[nH]c3c(F)cc(F)cc32)C1` [Compound 412, N-(((1r,3r)-3-(5,7-difluoro-2-(4-fluorophenyl)-1H-indol-3-yl)cyclobutyl)methyl)methanesulfonamide]: the IC50 under setting [1] lay within 0.25 to 1 µM.

Turning to `CC1(C(=O)N[C@H]2C[C@H](c3c(-c4ccc(F)cc4)[nH]c4c(F)cc(F)cc43)C2)CCC(=O)NC1` (mixture of isomers) [Compound 97], the half-maximal inhibitory concentration (IC50) under setting [1] was over 1 µM.

`O=C(NC[C@H]1C[C@H](c2c(-c3ccc(F)cc3)[nH]c3c(F)cc(F)cc32)C1)[C@H]1C[C@@H](O)CN1` [Compound 275]: the IC50 under setting [1] was over 1 µM.

For the compound `O=C(NC[C@H]1C[C@H](c2c(-c3ccc(F)cc3)[nH]c3c(F)cc(F)cc32)C1)C1CC(F)(F)CN1` (stereo partly shown) [Compound 223], under setting [1], the IC50 is 0.25 to 1 µM.

With `O=C(NC[C@H]1C[C@H](c2c(-c3ccc(F)cc3)[nH]c3c(F)cc(F)cc32)C1)[C@H]1COCCN1` [Compound 257], the IC50 under setting [1] was over 1 µM.

In the case of `O=c1[nH]c2ccc(S(=O)(=O)NC[C@H]3C[C@H](c4c(-c5ccc(F)cc5)[nH]c5c(F)cc(F)cc54)C3)cc2[nH]1` [Compound 418], the IC50 under setting [1] was over 1 µM.

As for `O=C(NC[C@H]1C[C@H](c2c(-c3ccc(F)cc3)[nH]c3c(F)cc(F)cc32)C1)c1n[nH]c(=O)[nH]1` [Compound 290], the IC50 under setting [1] was over 1 µM.

As for `CN(CC(=O)N[C@H]1C[C@@H](c2c(-c3ccc(F)cc3)[nH]c3c(F)cc(F)cc32)C1)S(C)(=O)=O` [Compound 38], the concentration for half-maximal inhibition (IC50) under setting [1] was over 1 µM.

In the case of `CN(C)CCC(=O)N[C@H]1C[C@H](c2c(-c3ccc(F)cc3)[nH]c3c(F)cc(F)cc32)C1` [Compound 122], under setting [1], the concentration for half-maximal inhibition (IC50) was over 1 µM.

For the compound `CCS(=O)(=O)N[C@H]1C[C@H](c2c(-c3ccc(F)cc3)[nH]c3c(F)cc(F)cc32)C1` [Compound 147], the IC50 under setting [1] is under 0.25 µM.

Compound `CC(C)(C)OC(=O)N1CC[C@H]1C(=O)NC[C@H]1C[C@H](c2c(-c3ccc(F)cc3)[nH]c3c(F)cc(F)cc32)C1` [Compound 216] came in with an IC50 (Thallium Assay (IC50)) of 0.25 to 1 µM.

Take `NC(=O)CNC(=O)N[C@H]1C[C@H](c2c(-c3ccc(F)cc3)[nH]c3c(F)cc(F)cc32)C1` [Compound 448, 2-(3-((1r,3r)-3-(5,7-difluoro-2-(4-fluorophenyl)-1H-indol-3-yl)cyclobutyl)ureido)acetamide]: under setting [1], the 50% inhibitory concentration (IC50) was in the range of 0.25 to 1 µM.

Consider `Cc1nc[nH]c1C(=O)NC1CC(Cc2c(-c3ccc(F)cc3)[nH]c3c(F)cc(F)cc23)C1` (stereo not shown) [Compound 162], for which the IC50 under setting [1] was in the range of 0.25 to 1 µM.

For the compound `O=C1CCC[C@@H](C(=O)NC[C@H]2C[C@H](c3c(-c4ccc(F)cc4)[nH]c4c(F)cc(F)cc43)C2)N1` [Compound 253], the IC50 under setting [1] is over 1 µM.

As to `CN1CCC(NCC2CC(c3c(-c4ccc(F)cc4)[nH]c4c(F)cc(F)cc34)C2)C1=O` (stereo not shown) [Compound 381], the IC50 under setting [1] is 0.25 to 1 µM.

As to `N[C@H]1C[C@@H](c2c(-c3ccc(F)cc3)[nH]c3c(F)cc(F)cc32)C1` [Compound 28, (1s,3s)-3-(5,7-difluoro-2-(4-fluorophenyl)-1H-indol-3-yl)cyclobutan-1-amine], the concentration for half-maximal inhibition (IC50) (Thallium Assay (IC50)) is under 0.25 µM.

As for `Cc1nccn1CC(=O)NC[C@H]1C[C@@H](c2c(-c3ccc(F)cc3)[nH]c3c(F)cc(F)cc32)C1` [Compound 321], under setting [1], the half-inhibitory concentration (IC50) is over 1 µM.

For `O=S(=O)(NC[C@H]1C[C@H](c2c(-c3ccc(F)cc3)[nH]c3c(F)cc(F)cc32)C1)c1n[nH]c2ncccc12` [Compound 419], the IC50 under setting [1] was over 1 µM.

Consider `O=S(=O)(NCCc1cn[nH]c1)NC[C@H]1C[C@H](c2c(-c3ccc(F)cc3)[nH]c3c(F)cc(F)cc32)C1` [Compound 369], for which the concentration for half-maximal inhibition (IC50) under setting [1] fell in the range of 0.25 to 1 µM.

On to `CC(CO)NCC1CC(c2c(-c3ccc(F)cc3)[nH]c3c(F)cc(F)cc23)C1` (mixture of isomers) [Compound 378], for which the IC50 under setting [1] is 0.25 to 1 µM.

For the compound `O=C(CN1CCOCC1)NC[C@H]1C[C@@H](c2c(-c3ccc(F)cc3)[nH]c3c(F)cc(F)cc32)C1` [Compound 272], the IC50 under setting [1] was over 1 µM.

Consider `CC(F)(F)C(=O)N[C@H]1C[C@H](c2c(-c3ccc(F)cc3)[nH]c3c(F)cc(F)cc32)C1` [Compound 130], for which, under setting [1], the IC50 is 0.25 to 1 µM.

In the case of `OCC1(NC2CC(c3c(-c4ccc(F)cc4)[nH]c4c(F)cc(F)cc34)C2)CC1` (stereo not shown) [Compound 21], the 50% inhibitory concentration (IC50) under setting [1] was in the range of 0.25 to 1 µM.

Consider `O=C(CC1CCOCC1)N[C@H]1C[C@@H](c2c(-c3ccc(F)cc3)[nH]c3c(F)cc(F)cc32)C1` [Compound 34], for which, under setting [1], the IC50 was over 1 µM.

As for `Cn1cc(S(=O)(=O)N[C@H]2C[C@@H](c3c(-c4ccc(F)cc4)[nH]c4c(F)cc(F)cc43)C2)cn1` [Compound 81], under setting [1], the IC50 is over 1 µM.

`CS(=O)(=O)CCCC(=O)N[C@H]1C[C@@H](c2c(-c3ccc(F)cc3)[nH]c3c(F)cc(F)cc32)C1` [Compound 32]: the IC50 under setting [1] was over 1 µM.

With `O=C1C[C@H](C(=O)NC[C@H]2C[C@H](c3c(-c4ccc(F)cc4)[nH]c4c(F)cc(F)cc43)C2)N1` [Compound 237], under setting [1], the IC50 was over 1 µM.

Regarding `CNS(=O)(=O)NC[C@H]1C[C@H](c2c(-c3ccc(F)cc3)[nH]c3c(F)cc(F)cc32)C1` [Compound 354], the IC50 under setting [1] was over 1 µM.

On to `O=S(=O)(NC[C@H]1C[C@H](c2c(-c3ccc(F)cc3)[nH]c3c(F)cc(F)cc32)C1)NC1(CO)CC1` [Compound 343], for which, under setting [1], the IC50 lay in the range of 0.25 to 1 µM.

`O=C(NC[C@H]1C[C@H](c2c(-c3ccc(F)cc3)[nH]c3c(F)cc(F)cc32)C1)[C@@H]1COCCN1` [Compound 276]: under setting [1], the IC50 was over 1 µM.

In the case of `O=S(=O)(NCCN1CCC(O)C1)NC[C@H]1C[C@H](c2c(-c3ccc(F)cc3)[nH]c3c(F)cc(F)cc32)C1` (stereo partly shown) [Compound 333], the 50% inhibitory concentration (IC50) under setting [1] was over 1 µM.

As to `CS(=O)(=O)NCC(=O)N[C@H]1C[C@@H](c2c(-c3ccc(F)cc3)[nH]c3c(F)cc(F)cc32)C1` [Compound 42], under setting [1], the IC50 was over 1 µM.
